Our source for the GI50 and TGI values is PubChem BioAssay (NCI).

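In this assay, cells in 96-well plates receive the compound at five concentrations for 48 hours. Endpoints are linearly interpolated between the surrounding concentrations. The concentration for 50% growth inhibition is given as GI50. TGI: total growth inhibition.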

Among the test systems are NCI-H460 lung; COLO 205 colon; MDA-MB-231 breast; OVCAR-5 ovarian; RPMI-8226 leukemia; HOP-62 NSCLC; OVCAR-4 ovarian; TK-10 renal.
Assay in all cases: NCI anticancer screen, dose series, 48 h

Take `COC(=O)[C@@H](C)C[C@H](Cc1ccccc1)NC(=O)c1nc([C@@H](C[C@H](C(C)C)N(C)C(=O)[C@@H](NC(=O)[C@H]2C[C@H](O)CCN2C)C(C)C)OC(C)=O)sc1C(C)C`: the GI50 is 7.6 nM in the assay with NCI-H460 lung; 6.92 nM in the assay with COLO 205 colon; 6.7 nM in the assay on MDA-MB-231 breast; 42.8 nM with OVCAR-5 ovarian; 1.73 nM in the assay on RPMI-8226 leukemia; 31.5 nM in the assay with HOP-62 NSCLC. The GI50 in the assay with OVCAR-4 ovarian was 49.3 nM; with TK-10 renal, 319 nM. The TGI was greater than 11100 nM in the assay with NCI-H460 lung; 104 nM with COLO 205 colon; 458 nM with MDA-MB-231 breast; greater than 11100 nM in the assay with OVCAR-5 ovarian; greater than 9920 nM in the assay with RPMI-8226 leukemia; greater than 11100 nM with HOP-62 NSCLC. Also, the TGI in the assay on OVCAR-4 ovarian and with TK-10 renal was greater than 11100 nM in each case.

As for `COC(=O)c1c2c(c(C)[n+]([O-])c1C)C(=O)C(NCc1ccc(OC)cc1)=CC2=O`, the GI50 in the assay with NCI-H460 lung was 1700 nM; in the assay with COLO 205 colon, 839 nM; in the assay on MDA-MB-231 breast, 2200 nM; with OVCAR-5 ovarian, 1800 nM; in the assay on RPMI-8226 leukemia, 2410 nM; in the assay with HOP-62 NSCLC it was 3640 nM. Further, the GI50 is 1120 nM in the assay on OVCAR-4 ovarian and 4620 nM in the assay with TK-10 renal. In addition, the TGI with NCI-H460 lung was 6390 nM; in the assay with COLO 205 colon, 2750 nM; with MDA-MB-231 breast, 6140 nM; in the assay on OVCAR-5 ovarian, 4060 nM; with RPMI-8226 leukemia, 7780 nM; in the assay on HOP-62 NSCLC, 97200 nM. Besides, the figures for the TGI in the assay with OVCAR-4 ovarian and with TK-10 renal were 2380 nM and 20100 nM, respectively.

In the case of `Cn1cc(-c2ccc3nc(-c4ccc(CC(=O)Nc5cc(C(C)(C)C)no5)cc4)cnc3c2)cn1`, the GI50 in the assay with NCI-H460 lung was 28.9 nM; in the assay on MDA-MB-231 breast it was 39.2 nM; with OVCAR-5 ovarian, 82.8 nM; in the assay on RPMI-8226 leukemia it was 56 nM; in the assay on HOP-62 NSCLC, 46.5 nM; in the assay on OVCAR-4 ovarian, 19.3 nM. Moreover, in the assay with TK-10 renal, the GI50 was 13.9 nM. Moreover, the TGI with NCI-H460 lung is greater than 3000 nM; with COLO 205 colon it was greater than 3000 nM; in the assay on MDA-MB-231 breast it was 664 nM; with OVCAR-5 ovarian, greater than 3000 nM; in the assay with RPMI-8226 leukemia, greater than 3000 nM; with HOP-62 NSCLC, greater than 3000 nM. Moreover, the TGI in the assay on OVCAR-4 ovarian and in the assay on TK-10 renal was greater than 3000 nM each time.

For the molecule `CC1(C)N=C(N)N=C(N)N1c1ccc(OCCCNC(=O)Nc2ccc(S(=O)(=O)F)cc2)c(Cl)c1`, the GI50 is 48.6 nM with NCI-H460 lung; 854 nM with COLO 205 colon; 3340 nM with MDA-MB-231 breast; 419 nM with OVCAR-5 ovarian; 1640 nM with RPMI-8226 leukemia; 820 nM in the assay with HOP-62 NSCLC. The figures for the GI50 in the assay on OVCAR-4 ovarian and in the assay with TK-10 renal were 4050 nM and 907 nM, respectively. Moreover, the TGI was greater than 37600 nM in the assay on NCI-H460 lung; greater than 100000 nM in the assay with COLO 205 colon; greater than 100000 nM with MDA-MB-231 breast; greater than 100000 nM in the assay on OVCAR-5 ovarian; greater than 75000 nM with RPMI-8226 leukemia; greater than 100000 nM with HOP-62 NSCLC. Moreover, the TGI with OVCAR-4 ovarian and in the assay with TK-10 renal was greater than 100000 nM in each case.

Turning to `Cn1ncnc1[C@@H]1c2n[nH]c(=O)c3cc(F)cc(c23)N[C@H]1c1ccc(F)cc1`, the GI50 in the assay with NCI-H460 lung is 78400 nM; in the assay on COLO 205 colon, greater than 100000 nM; with MDA-MB-231 breast it was greater than 100000 nM; in the assay with OVCAR-5 ovarian, greater than 100000 nM; in the assay on RPMI-8226 leukemia, greater than 100000 nM; in the assay with HOP-62 NSCLC it was greater than 100000 nM. The GI50 in the assay with OVCAR-4 ovarian and in the assay with TK-10 renal was greater than 100000 nM in each case. Besides, the TGI with NCI-H460 lung, with COLO 205 colon, in the assay with MDA-MB-231 breast, with OVCAR-5 ovarian, with RPMI-8226 leukemia and with HOP-62 NSCLC was greater than 100000 nM each time. The TGI in the assay on OVCAR-4 ovarian and with TK-10 renal was greater than 100000 nM each time.

With `Nc1ccc(/C=C/c2ccc3ncccc3c2)cc1`, the GI50 in the assay on NCI-H460 lung was greater than 100000 nM; with COLO 205 colon it was greater than 100000 nM; in the assay on MDA-MB-231 breast, 2090 nM; in the assay on OVCAR-5 ovarian it was greater than 100000 nM; in the assay on RPMI-8226 leukemia, 6890 nM; in the assay with HOP-62 NSCLC it was greater than 100000 nM. Also, the GI50 is greater than 100000 nM with OVCAR-4 ovarian and 86500 nM in the assay on TK-10 renal. Moreover, the TGI in the assay with NCI-H460 lung, in the assay with COLO 205 colon, in the assay on MDA-MB-231 breast, with OVCAR-5 ovarian, in the assay on RPMI-8226 leukemia and in the assay with HOP-62 NSCLC was greater than 100000 nM throughout. Besides, the TGI in the assay with OVCAR-4 ovarian and with TK-10 renal was greater than 100000 nM each time.

With `ClC1=C(Cl)C(Cl)(C2(Cl)C(Cl)=C(Cl)C(Cl)=C2Cl)C(Cl)=C1Cl`, the GI50 with NCI-H460 lung was 1890 nM; in the assay with COLO 205 colon, 202 nM; in the assay with MDA-MB-231 breast, 383 nM; in the assay with OVCAR-5 ovarian it was 1220 nM; in the assay with RPMI-8226 leukemia, 252 nM; in the assay with HOP-62 NSCLC, 2210 nM. In addition, the GI50 in the assay on OVCAR-4 ovarian was 200 nM; with TK-10 renal, 201 nM. The TGI with NCI-H460 lung worked out at 3800 nM; in the assay with COLO 205 colon, 462 nM; in the assay with MDA-MB-231 breast, 1420 nM; in the assay with OVCAR-5 ovarian, 2760 nM; in the assay with RPMI-8226 leukemia it was 696 nM; in the assay on HOP-62 NSCLC it was 4560 nM. Besides, the results for the TGI with OVCAR-4 ovarian and in the assay with TK-10 renal were 509 nM and 462 nM, respectively.

As for `Sc1cccc2cccnc12`, the GI50 in the assay on NCI-H460 lung was 389 nM; with COLO 205 colon, 2320 nM; in the assay on MDA-MB-231 breast it was 1360 nM; in the assay on OVCAR-5 ovarian, 4100 nM; in the assay with RPMI-8226 leukemia it was 2900 nM; in the assay on HOP-62 NSCLC, 1110 nM. Moreover, the GI50 with OVCAR-4 ovarian was 445 nM; with TK-10 renal it was 4160 nM. The TGI with NCI-H460 lung came to 6230 nM; in the assay on COLO 205 colon, 9380 nM; with MDA-MB-231 breast, 14700 nM; with OVCAR-5 ovarian, 17700 nM; in the assay with RPMI-8226 leukemia it was 30300 nM; in the assay with HOP-62 NSCLC it was 12300 nM. Further, the TGI with OVCAR-4 ovarian stood at 12700 nM; in the assay on TK-10 renal it was 15600 nM.

On to `CCOC(=O)c1noc2c1CCc1c-2cn(Cc2ccc(OC)cc2)c1-c1cc(OC)c(OC)c(OC)c1`, for which the GI50 in the assay with NCI-H460 lung was 1000 nM; in the assay on COLO 205 colon, 1770 nM; in the assay on MDA-MB-231 breast, 2700 nM; with OVCAR-5 ovarian, 4720 nM; with RPMI-8226 leukemia, 2850 nM; with HOP-62 NSCLC it was 2530 nM. Also, the GI50 in the assay with OVCAR-4 ovarian is 20500 nM; in the assay on TK-10 renal, greater than 100000 nM. Also, the TGI in the assay with NCI-H460 lung is greater than 100000 nM; in the assay with COLO 205 colon, 7820 nM; in the assay on MDA-MB-231 breast it was greater than 100000 nM; in the assay with OVCAR-5 ovarian, greater than 100000 nM; with RPMI-8226 leukemia, greater than 100000 nM; in the assay on HOP-62 NSCLC it was greater than 100000 nM. The TGI with OVCAR-4 ovarian and with TK-10 renal was greater than 100000 nM throughout.
